Laboratory results reported in ChEMBL document CHEMBL4732271, “Novel Substituted Thiadiazoles as Splicing Modulators for Modulating Splicing of mRNA and Uses Thereof for Treating Diseases” (ACS Med Chem Lett, 2021).

Legend:
SMN2 pre-mRNA [1] = experiment: Modulation of SMN2 mRNA FL splicing in human spinal muscular atrophy patient fibroblasts incubated for 24 hrs by qPCR analysis; type: tissue-based
SMN2 pre-mRNA [2] = experiment: Modulation of SMN2 mRNA D7 splicing in human spinal muscular atrophy patient fibroblasts incubated for 24 hrs by qPCR analysis; type: tissue-based
SMN2 pre-mRNA [3] = experiment: Modulation of SMN2 mRNA FL splicing in human spinal muscular atrophy patient fibroblasts assessed as SMN2 protein potency incubated for 48 hrs by mesoscale discovery assay

Row | Structure (SMILES) | EC50 (SMN2 pre-mRNA [1]) [nM] | IC50 (SMN2 pre-mRNA [2]) [nM] | EC50 (SMN2 pre-mRNA [3]) [nM]
1 | CN(c1nnc(-c2cc(F)c(-c3cnn(C)c3)cc2O)s1)[C@@H]1C[C@H]2CC[C@H](N2)[C@@H]1F | 16 | 0.01 | 0.01
2 | CN(c1nnc(-c2ccc(-c3cn[nH]c3)cc2O)s1)[C@@H]1C[C@H]2CC[C@H](N2)[C@@H]1F | 0.01 | 0.01 | 0.01
3 | COc1cc(-c2ccc(-c3nnc(N(C4CC4)[C@@H]4C[C@H]5CC[C@H](N5)C4F)s3)c(O)c2)cc(F)n1 (stereo partly drawn) | 16 | 0.01 | 0.01
4 | CN(c1nnc(-c2ccc(-c3cnn(C)c3)cc2O)s1)[C@H]1C[C@@H]2CCC[C@@H](N2)[C@H]1F | 16 | 0.01 | 0.01
5 | CN(c1nnc(-c2ccc(-c3cnn(CF)c3)cc2O)s1)[C@@H]1C[C@H]2CC[C@H](N2)[C@@H]1F | 16 | 16 | 0.01
6 | CN(c1nnc(-c2ccc(-c3cnn(C)c3)cc2O)s1)[C@@H]1C[C@H]2CC[C@H](N2)[C@@H]1F | 16 | 0.01 | 0.01
